Assay results published in paper PMC4515351 (Parasitology, 2014).
Like-named read-outs stand apart in the source and are kept apart here.

Legend:
FhGALE = FhGALE (Fasciola hepatica, UniProt A0A3G0ZAV7); assay type: binding; details: for Effect on melting temperature (Tm) of FhGALE: thermal scanning fluorimetry, FhGALE 3.0 µM; for Kd: read-out: apparent dissociation constant (KD,app)
[1] = biological target: FhGALE (Fasciola hepatica UDP-galactose 4’-epimerase) (Fasciola hepatica, UniProt A0A3G0ZAV7); assay: biochemical; assay type: biochemical; details: for Selectivity of inhibition, FhGALE versus HsGALE (in words): as judged by respective IC50 values; for IC50 range in words: under the conditions tested, summary of Table 1
HsGALE (human GALE) = biological target: T1, HsGALE (human GALE) (Homo sapiens, UniProt Q14376); assay: HsGALE inhibition, coupled enzyme assay with UDP-glucose dehydrogenase; assay type: biochemical
T1 sequence (Q14376 1-348): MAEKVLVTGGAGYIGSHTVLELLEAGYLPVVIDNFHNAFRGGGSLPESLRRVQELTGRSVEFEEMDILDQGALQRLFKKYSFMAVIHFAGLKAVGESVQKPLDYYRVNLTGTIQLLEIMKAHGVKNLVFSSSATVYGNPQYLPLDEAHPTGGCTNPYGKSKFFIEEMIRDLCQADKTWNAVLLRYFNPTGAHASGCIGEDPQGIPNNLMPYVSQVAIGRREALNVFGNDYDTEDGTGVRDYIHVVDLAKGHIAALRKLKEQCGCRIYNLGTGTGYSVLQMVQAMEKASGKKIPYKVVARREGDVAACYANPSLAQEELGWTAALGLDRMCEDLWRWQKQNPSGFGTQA

[2] = test system: UDP-glucose dehydrogenase; details: 100 µM compound, 0.17 mM UDP-glucose, […] NAD+

| IC50 [1] [µM] | IC50 range in words [1] | IC50 (HsGALE (human GALE)) [µM] | Selectivity of inhibition, FhGALE versus HsGALE (in words) ([1]; listed as N-[(benzyloxy)carbonyl]leucyltryptophan) | IC50 ([1]; read-out: FhGALE IC50, pH 7.5) [µM] | Kd (FhGALE) [µM] | Selectivity of inhibition, FhGALE versus HsGALE (in words) ([1]; listed as 5-fluoroorotate) | Structure (SMILES) | Effect on melting temperature (Tm) of FhGALE (FhGALE) | Selectivity of inhibition, FhGALE versus HsGALE (in words) [1] | Effect on rate of coupling enzyme UDP-glucose dehydrogenase [2] |
| --- | --- | --- | --- | --- | --- | --- | --- | --- | --- | --- |
| 0.3 ± 0.11 | submicromolar | 0.013 ± 0.006 | – | – | – | – | CC(C)c1nc2c([nH]1)c(=O)n(C)c(=O)n2C [NSC14303] | – | inhibited the human enzyme to a greater extent than the liver fluke one | – |
| – | submicromolar | – | – | 0.03 ± 0.011 | 1900 ± 900 | selectivity for FhGALE over HsGALE | O=C1NC(=O)C(F)C(C(=O)O)N1 (centres unmarked) [NSC31712, 5-fluoro-2,6-dioxohexahydropyrimidine-4-carboxylate] | reducing the Tm in a concentration dependent manner | inhibited FhGALE several orders of magnitude more strongly than HsGALE | – |
| 260 | – | 9.5 ± 8.2 | – | – | – | – | Cn1c(=O)c2[nH]c(COc3ccc(C(C)(C)C)cc3)nc2n(C)c1=O [NSC36525, 8-[(4-tert-butylphenoxy)methyl]-1,3-dimethyl-3,7-dihydro-1H-purine-2,6-dione] | – | inhibited the human enzyme to a greater extent than the liver fluke one | – |

The remaining lines, values behind:

| Structure (SMILES) | IC50 [1] [µM] | IC50 range in words [1] | IC50 (HsGALE (human GALE)) [µM] | Selectivity of inhibition, FhGALE versus HsGALE (in words) ([1]; listed as N-[(benzyloxy)carbonyl]leucyltryptophan) | IC50 ([1]; read-out: FhGALE IC50, pH 7.5) [µM] | Kd (FhGALE) [µM] | Selectivity of inhibition, FhGALE versus HsGALE (in words) ([1]; listed as 5-fluoroorotate) | Effect on melting temperature (Tm) of FhGALE (FhGALE) | Selectivity of inhibition, FhGALE versus HsGALE (in words) [1] | Effect on rate of coupling enzyme UDP-glucose dehydrogenase [2] |
| --- | --- | --- | --- | --- | --- | --- | --- | --- | --- | --- |
| NC(=O)c1ccc[n+]([C@@H]2O[C@H](COP(=O)([O-])OP(=O)(O)OC[C@H]3O[C@@H](n4cnc5c(N)ncnc54)[C@H](O)[C@@H]3O)[C@@H](O)[C@H]2O)c1 [NAD^+] | – | – | – | – | – | – | – | no measurable effect | – | – |
| CCOc1ccc(NC(=O)c2cc3ccccc3cc2O)cc1 [NSC50690, N-(4-ethoxyphenyl)-3-hydroxynaphthalene-2-carboxamide] | 0.061 ± 0.02 | submicromolar | 0.045 ± 0.023 | – | – | – | – | – | inhibited both enzymes to approximately the same extent | – |
| CC(C)CC(NC(=O)OCc1ccccc1)C(=O)NC(Cc1c[nH]c2ccccc12)C(=O)O (centres unmarked) [NSC335979, (3-(1H–indol-3-yl)-2-[[4-methyl-2-(phenylmethoxycarbonylamino)pentanoyl]amino]propionate)] | – | submicromolar | – | selectivity for FhGALE over HsGALE | 0.1 ± 0.046 | 210 ± 20 | – | reducing the Tm in a concentration dependent manner | inhibited FhGALE several orders of magnitude more strongly than HsGALE | – |
| CC1(C)OC2C(CO)OC(n3cnc4c(=S)nc[nH]c43)C2O1 (centres unmarked) [NSC27305, 9-[6-(hydroxymethyl)-2,2-dimethyltetrahydrofuro[3,4-d][1,3]dioxol-4-yl]-3,9-dihydro-6H-purine-6-thione] | 0.00011 ± 0.00012 | sub-nanomolar | 0.0061 ± 0.0092 | – | – | – | – | – | inhibited both enzymes to approximately the same extent | – |
| COc1cccc(OCC(O)CN2CCN(c3ccccc3)CC2)c1 (centres unmarked) [NSC91378] | – | – | – | – | – | – | – | – | – | affect the rate |
